The test system of the assay is HT-29 cells. In words: HT-29 necroptosis cell viability assay (TNF-α/SMAC mimetic/zVAD-FMK, CellTiter-Glo). In kind it is cell-based. The conditions noted are these: Homo sapiens, read-out: Activity. In a few lines:
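Necroptosis was triggered by TNF-α (10 ng/ml), SMAC mimetic (6 μM) and zVAD-FMK (10 μM) in serum-free medium during 20 h compound exposure (10 concentrations, threefold steps) of HT-29 cells. IC50 from duplicate dose-responses uses CellTiter-Glo ATP luminescence as viability read-out.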

The mark [1] stands for this setting: HT-29, HT-29 necroptosis cell viability assay, class symbols for IC50.
[2] abbreviates: HT-29, HT-29 necroptosis cell viability, IC50 class symbols.
[3] abbreviates: HT-29 cells stimulated with TNF-α (10 ng/ml), SMAC mimetic (6 μM) and zVAD-FMK (10 μM), 20 hours, CellTiter-Glo ATP luminescence, geometric mean IC50 from 10 points.

Read-outs that look alike come from different tables or passages of the source.

On to `Cc1nc(C(N)=O)sc1Oc1ccc(-n2ncn(Cc3cc(Cl)ccn3)c2=O)cc1F` [Example 565], for which the IC50 under setting [1] was 100 to 1000 nM.
For `Cc1nc(N2CC(N)(CF)C2)sc1Cc1ccc(-n2ncn(Cc3c(F)cccc3F)c2=O)cc1F` [Example 453, 2-(4-((2-(3-amino-3-(fluoromethyl)azetidin-1-yl)-4-methylthiazol-5-yl)methyl)-3-fluorophenyl)-4-(2,6-difluorobenzyl)-2,4-dihydro-3H-1,2,4-triazol-3-one], the IC50 under setting [2] is less than 100 nM.
Turning to `Cn1nc(C(C)(C)O)cc1Oc1ccc(-n2nc3n(c2=O)C(c2ccccc2)CC3)cc1F` (stereo not drawn) [Example 130, 2-(3-fluoro-4-((3-(2-hydroxypropan-2-yl)-1-methyl-1H-pyrazol-5-yl)oxy)phenyl)-5-phenyl-2,5,6,7-tetrahydro-3H-pyrrolo[2,1-c][1,2,4]triazol-3-one], the IC50 under setting [1] is less than 100 nM.
For the compound `CC1(O)CN(c2nc(C(F)F)c(Oc3ccc(-n4ncn(Cc5c(F)cccc5F)c4=O)cc3F)s2)C1` [Example 144, 4-(2,6-difluorobenzyl)-2-(4-((4-(difluoromethyl)-2-(3-hydroxy-3-methylazetidin-1-yl)thiazol-5-yl)oxy)-3-fluorophenyl)-2,4-dihydro-3H-1,2,4-triazol-3-one], the IC50 under setting [1] was less than 100 nM.
Same read-out and setting: with `CC(=O)c1nc(C)c(Oc2ccc(-n3ncn(Cc4c(F)cccc4F)c3=O)cc2F)n1C` [Example 174, 2-(4-((2-acetyl-1,4-dimethyl-1H-imidazol-5-yl)oxy)-3-fluorophenyl)-4-(2,6-difluorobenzyl)-2,4-dihydro-3H-1,2,4-triazol-3-one] the figure was less than 100 nM.
`Cc1cnc(N2CCC(C)(C#N)C2)cc1Oc1ccc(-n2ncn(Cc3c(F)cccc3F)c2=O)cc1F` (stereo not drawn) [Example 228, 1-(4-(4-(4-(2,6-difluorobenzyl)-5-oxo-4,5-dihydro-1H-1,2,4-triazol-1-yl)-2-fluorophenoxy)-5-methylpyridin-2-yl)-3-methylpyrrolidine-3-carbonitrile]: under setting [2], the IC50 is less than 100 nM.
Take `Cc1nn(-c2ccc(S(=O)(=O)N3CCN(C4CCCCC4)CC3)cc2)c(=O)n1Cc1ccccc1` [Example 620, 4-benzyl-2-(4-((4-cyclohexylpiperazin-1-yl)sulfonyl)phenyl)-5-methyl-2,4-dihydro-3H-1,2,4-triazol-3-one]: the IC50 under setting [1] lay in the range of 1000 to 10000 nM.
Same read-out and setting: to `Cc1ccc(C)n1Cc1ccc(-n2ncn(Cc3c(F)cccc3F)c2=O)cc1` [Example 207, 4-(2,6-difluorobenzyl)-2-(4-((2,5-dimethyl-1H-pyrrol-1-yl)methyl)phenyl)-2,4-dihydro-3H-1,2,4-triazol-3-one] belongs less than 100 nM.
Turning to `C[C@H]1C[C@@H](N)CN1c1cc(Oc2ccc(-n3ncn(Cc4c(F)cccc4F)c3=O)cc2F)c(Cl)cn1` [Example 413, 2-(4-((2-((2S,4R)-4-amino-2-methylpyrrolidin-1-yl)-5-chloropyridin-4-yl)oxy)-3-fluorophenyl)-4-(2,6-difluorobenzyl)-2,4-dihydro-3H-1,2,4-triazol-3-one], under setting [2], the IC50 was less than 100 nM.
`Cc1nc(C2(F)CC(OCc3ccccc3)C2)sc1Oc1ccc(-n2ncn(Cc3c(F)cccc3F)c2=O)cc1F` (stereo not drawn) [Example 111, 2-(4-((2-(3-(benzyloxy)-1-fluorocyclobutyl)-4-methylthiazol-5-yl)oxy)-3-fluorophenyl)-4-(2,6-difluorobenzyl)-2,4-dihydro-3H-1,2,4-triazol-3-one]: the IC50 under setting [3] was less than 100 nM.
`COC1(C#N)CN(c2nccc(Oc3ccc(-n4ncn(Cc5c(F)cccc5F)c4=O)cc3)c2F)C1` [Example 358, 1-(4-(4-(4-(2,6-difluorobenzyl)-5-oxo-4,5-dihydro-1H-1,2,4-triazol-1-yl)phenoxy)-3-fluoropyridin-2-yl)-3-methoxyazetidine-3-carbonitrile]: the IC50 under setting [2] is less than 100 nM.
In the case of `Cc1cc(C(N)=O)n(C)c1Oc1ccc(-n2nc3n(c2=O)[C@H](c2ccccc2)CC3)cc1F` (single isomer, unassigned) [Example 697], under setting [3], the IC50 was less than 100 nM.
Still for that read-out and setting: with `Cc1ncsc1Oc1ccc(-n2ncn(Cc3c(F)cccc3F)c2=O)cc1F` [Example 2, 4-(2,6-difluorobenzyl)-2-(3-fluoro-4-((4-methylthiazol-5-yl)oxy)phenyl)-2,4-dihydro-3H-1,2,4-triazol-3-one] the figure was less than 100 nM; with `Cc1nc(N2CC(C#N)C2C)sc1Oc1ccc(-n2ncn(Cc3c(F)cccc3F)c2=O)cc1` (stereo not drawn) [Example 48, 1-(5-(4-(4-(2,6-difluorobenzyl)-5-oxo-4,5-dihydro-1H-1,2,4-triazol-1-yl)phenoxy)-4-methylthiazol-2-yl)-2-methylazetidine-3-carbonitrile], less than 100 nM.
Regarding `O=c1n(Cc2c(F)cccc2F)cnn1-c1ccc(Oc2ccnc(N3CCC4(CCOC4)C3)c2)cc1` (stereo not drawn) [Example 330, 2-(4-((2-(2-oxa-7-azaspiro[4.4]nonan-7-yl)pyridin-4-yl)oxy)phenyl)-4-(2,6-difluorobenzyl)-2,4-dihydro-3H-1,2,4-triazol-3-one], the IC50 under setting [2] is less than 100 nM.
With `Nc1cc(Oc2ccc(-n3ncn(Cc4c(F)cccc4F)c3=O)cc2)ccn1` [Example 310, 2-(4-((2-aminopyridin-4-yl)oxy)phenyl)-4-(2,6-difluorobenzyl)-2,4-dihydro-3H-1,2,4-triazol-3-one], under setting [2], the IC50 is 100 to 1000 nM.
Turning to `Cc1nc(C(=O)N2CC(C#N)C2)sc1Oc1ccc(-n2ncn(Cc3ccccc3F)c2=O)cc1F` [Example 592, 1-(5-(2-fluoro-4-(4-(2-fluorobenzyl)-5-oxo-4,5-dihydro-1H-1,2,4-triazol-1-yl)phenoxy)-4-methylthiazole-2-carbonyl)azetidine-3-carbonitrile], the IC50 under setting [1] is less than 100 nM.
For `Cc1ncsc1Oc1ccc(-n2ncn(Cc3ccccc3F)c2=O)cc1F` [Example 8, 2-(3-fluoro-4-((4-methylthiazol-5-yl)oxy)phenyl)-4-(2-fluorobenzyl)-2,4-dihydro-3H-1,2,4-triazol-3-one], the IC50 under setting [3] is less than 100 nM.
As for `C[C@H]1[C@@H](N(C)C)CN1c1cc(Oc2ccc(-n3ncn(Cc4c(F)cccc4F)c3=O)cc2F)c(Cl)cn1` [Example 426, 2-(4-((5-chloro-2-((2S,3S)-3-(dimethylamino)-2-methylazetidin-1-yl)pyridin-4-yl)oxy)-3-fluorophenyl)-4-(2,6-difluorobenzyl)-2,4-dihydro-3H-1,2,4-triazol-3-one], the IC50 under setting [2] is less than 100 nM.
As for `Cc1c(C(N)=O)noc1Oc1ccc(-n2nc3n(c2=O)[C@H](c2ccccc2)CC3)cc1F` (single isomer, unassigned) [Example 695], the IC50 under setting [3] is less than 100 nM.
In the case of `Cc1nc(C#N)sc1Oc1ccc(-n2ncn(Cc3cnccc3Cl)c2=O)cc1F` [Example 38, 5-(4-(4-((4-chloropyridin-3-yl)methyl)-5-oxo-4,5-dihydro-1H-1,2,4-triazol-1-yl)-2-fluorophenoxy)-4-methylthiazole-2-carbonitrile], the IC50 under setting [3] is less than 100 nM.
On to `Cc1nn(-c2ccc(S(=O)(=O)N3CCN(C4CCCOC4)CC3)cc2)c(=O)n1Cc1ccccc1` (stereo not drawn) [Example 626, 4-benzyl-5-methyl-2-(4-((4-(tetrahydro-2H-pyran-3-yl)piperazin-1-yl)sulfonyl)phenyl)-2,4-dihydro-3H-1,2,4-triazol-3-one], for which the IC50 under setting [1] lay in the range of 1000 to 10000 nM.
Turning to `CCOC1CN(c2ncc(Oc3ccc(-n4ncn(Cc5c(F)cccc5F)c4=O)cc3)s2)C1` [Example 84, 4-(2,6-difluorobenzyl)-2-(4-((2-(3-ethoxyazetidin-1-yl)thiazol-5-yl)oxy)phenyl)-2,4-dihydro-3H-1,2,4-triazol-3-one], under setting [3], the IC50 is less than 100 nM.
In the case of `Cc1ncc(C#N)cc1Oc1ccc(-n2ncn(Cc3c(F)cccc3F)c2=O)cc1` [Example 518, 5-(4-(4-(2,6-difluorobenzyl)-5-oxo-4,5-dihydro-1H-1,2,4-triazol-1-yl)phenoxy)-6-methylnicotinonitrile], the IC50 under setting [1] fell in the range of 1000 to 10000 nM.
On to `CCOC1CN(c2cc(Oc3ccc(-n4ncn(Cc5c(F)cccc5F)c4=O)cc3)c(C)s2)C1` [Example 85, 4-(2,6-difluorobenzyl)-2-(4-((5-(3-ethoxyazetidin-1-yl)-2-methylthiophen-3-yl)oxy)phenyl)-2,4-dihydro-3H-1,2,4-triazol-3-one], for which the IC50 under setting [3] is more than 10000 nM.
For the compound `Cc1nc(CC#N)sc1Oc1ccc(-n2ncn(Cc3c(F)cccc3F)c2=O)cc1F` [Example 155, 2-(5-(4-(4-(2,6-difluorobenzyl)-5-oxo-4,5-dihydro-1H-1,2,4-triazol-1-yl)-2-fluorophenoxy)-4-methylthiazol-2-yl)acetonitrile], the IC50 under setting [1] is less than 100 nM.
For `Cc1nc(N)sc1Sc1ccc(-n2ncn(Cc3ccccc3)c2=O)cc1` [Example 458, 2-(4-((2-amino-4-methylthiazol-5-yl)thio)phenyl)-4-benzyl-2,4-dihydro-3H-1,2,4-triazol-3-one], the IC50 under setting [2] is less than 100 nM.
For `Cc1nc(N2CC(OC(F)F)C2)sc1Oc1ccc(-n2ncn(Cc3c(F)cccc3F)c2=O)cc1` [Example 49, 4-(2,6-difluorobenzyl)-2-(4-((2-(3-(difluoromethoxy)azetidin-1-yl)-4-methylthiazol-5-yl)oxy)phenyl)-2,4-dihydro-3H-1,2,4-triazol-3-one], the IC50 under setting [3] is less than 100 nM.
On the same count and under the same terms, to `Cc1nc(C(=O)NCCN)sc1Oc1ccc(-n2ncn(Cc3ccccc3F)c2=O)cc1F` [Example 27, N-(2-aminoethyl)-5-(2-fluoro-4-(4-(2-fluorobenzyl)-5-oxo-4,5-dihydro-1H-1,2,4-triazol-1-yl)phenoxy)-4-methylthiazole-2-carboxamide] belongs less than 100 nM.
In the case of `CC1(C#N)CN(c2nccc(Oc3ccc(-n4ncn(Cc5c(F)cccc5F)c4=O)cc3Cl)c2Cl)C1` [Example 256, 1-(3-chloro-4-(2-chloro-4-(4-(2,6-difluorobenzyl)-5-oxo-4,5-dihydro-1H-1,2,4-triazol-1-yl)phenoxy)pyridin-2-yl)-3-methylazetidine-3-carbonitrile], under setting [2], the IC50 is less than 100 nM.

The record behind these values is patent US20250179061A1 (SIRONAX LTD., priority 2022, published 2025).
